Experimental data: the OPERA property sets (Mansouri et al. 2018)

conditions: not given

Point of comparison: `ClC1=C(Cl)C(Cl)(Cl)C(Cl)=C1Cl`, boiling point 239 °C. Against it:
- S=C1NCCN1 — higher, 347 °C
- OCCC(F)(F)F — lower, 99.5 °C
- OC1CCOC1 (stereo unspecified) — lower, 181 °C
- CCN(CC)[N+](=O)[O-] — lower, 206 °C
- OC[C@@H]1CCCN2CCCC[C@H]12 — higher, 270 °C
- CCC(C)CC(C)(C)C (stereo unspecified) — lower, 126 °C
- COC(=O)c1cccc(I)c1 — higher, 277 °C
- Cc1cc(Cl)ccc1N — higher, 244 °C
- CC(=O)Br — lower, 76 °C
- BrCCCCCBr — lower, 222 °C
- FC(F)OCC(F)(F)F — lower, 29.3 °C
- CCNC(=O)OCC — lower, 176 °C
- CCOCCOCCOC(C)=O — lower, 218 °C
- CC1=CC[C@@H]2[C@H]3[C@@H](C(C)C)CC[C@]2(C)[C@@H]13 — higher, 248 °C
- FC(F)OC(F)(F)C(F)Cl (stereo unspecified) — lower, 56.5 °C
- ClCc1ccc(Br)cc1 — lower, 236 °C
- C=CC(OC(C)=O)OC(C)=O — lower, 180 °C
- Fc1cc(F)c(F)c(F)c1F — lower, 85.7 °C
- COC(=O)c1c(Cl)c(Cl)c(C(=O)OC)c(Cl)c1Cl — higher, 365 °C
- CC(C)(I)I — lower, 173 °C
- CC(C)COCCOCCO — lower, 217 °C
- Brc1ccc(-c2ccc(Br)cc2)cc1 — higher, 358 °C
- FC(F)I — lower, 21.6 °C
- CCCCCCCCCCCCI — higher, 298 °C
- c1ccc2nncnc2c1 — lower, 238 °C

Point of comparison: `CCC(C)CC(C)(C)C` (stereo unspecified), melting point -120 °C. Against it:
- S=C1NCCN1 — higher, 203 °C
- C=CC(=O)NC(C)(C)C — higher, 128 °C
- CCCC(C)(COC(N)=O)COC(=O)NC(C)C (stereo unspecified) — higher, 92 °C
- CCOC(=O)C=Cc1ccc([N+](=O)[O-])cc1 — higher, 139 °C
- C#CCN1C(=O)COc2cc(F)c(N3C(=O)C4=C(CCCC4)C3=O)cc21 — higher, 202 °C
- OC[C@@H]1CCCN2CCCC[C@H]12 — higher, 70 °C
- Cc1c(Cl)cccc1Nc1ncccc1C(=O)O — higher, 234 °C
- ClC1=C(Cl)C(Cl)(Cl)C(Cl)=C1Cl — higher, -9 °C
- COc1ccc2[nH]cc(CCN)c2c1 — higher, 122 °C
- COC(=O)c1cccc(I)c1 — higher, 54.5 °C
- Fc1ccc(N2CCNCC2)cc1 — higher, 31.5 °C
- OC(Cc1ccccc1)(c1ccccc1)c1ccccc1 — higher, 89.5 °C
- CC1(C)C(C(=O)OC(C#N)c2cccc(Oc3ccccc3)c2)C1(C)C (stereo unspecified) — higher, 47 °C
- C[C@@H]1[C@@H](c2ccc(Cl)cc2)SC(=O)N1C(=O)NC1CCCCC1 (single isomer, unassigned) — higher, 108 °C
- Cc1cc(Cl)ccc1N — higher, 30.3 °C
- C/C(=C\CNc1ncnc2[nH]cnc12)CO — higher, 208 °C
- CC(C)(C)CC(C)(C)Nc1ncnc(N(CCCCCCNC2CC(C)(C)NC(C)(C)C2)C2CC(C)(C)NC(C)(C)C2)n1 — higher, 138 °C
- CC(=O)Br — higher, -96 °C
- BrCCCCCBr — higher, -39.5 °C
- CC(=O)NN — higher, 67 °C
- OC1[C@@H](O)[C@H](O)C[C@@H](O)[C@@H]1O (stereo partly specified) — higher, 236 °C
- CC(=O)CC(=O)Nc1ccc(C)cc1C — higher, 90 °C
- O=C=Nc1ccccc1[N+](=O)[O-] — higher, 41 °C
- CCOCCOCCOC(C)=O — higher, -25 °C
- CCCCC(=O)N(C)C — higher, -51 °C
- ClCc1ccc(Br)cc1 — higher, 50 °C
- CN(C)c1ccc2c(c1)Sc1cc(N(C)C)ccc1N2C(=O)c1ccccc1 — higher, 195 °C
- C=CC(OC(C)=O)OC(C)=O — higher, -37.6 °C
- Fc1cc(F)c(F)c(F)c1F — higher, -47.3 °C
- COC(=O)c1c(Cl)c(Cl)c(C(=O)OC)c(Cl)c1Cl — higher, 155 °C
- [O-][n+]1ccccc1 — higher, 65.5 °C
- CC(=O)c1cnccn1 — higher, 77 °C
- O=P([O-])([O-])O[C@@H]1[C@@H](O)[C@H](O)[C@@H](O)[C@H](O)[C@@H]1O — higher, 195 °C
- Cc1[nH]ncc1Br — higher, 76.5 °C
- Brc1ccc(-c2ccc(Br)cc2)cc1 — higher, 164 °C
- FC(F)I — lower, -122 °C
- CNC[C@H](O)[C@@H](O)[C@H](O)[C@H](O)CO — higher, 128 °C
- CCCCCCCCCCCCI — higher, 0.3 °C
- CCCC(C(N)=O)n1nc2ccccc2n1 (stereo unspecified) — higher, 126 °C
- c1ccc2nncnc2c1 — higher, 75.8 °C
- O=CNNC=O — higher, 156 °C

For `S=C1NCCN1`, the ready biodegradability was “not readily biodegradable”.
With `ClC1=C(Cl)C(Cl)(Cl)C(Cl)=C1Cl` the ready biodegradability was “not readily biodegradable”.
With `CCCCCCCCCCCCCCCC(=O)OC[C@@H](O)[C@H]1OC[C@H](O)[C@H]1O` the ready biodegradability was “readily biodegradable”.
In the case of `COc1ccc(O)c(C(C)(C)C)c1`, the ready biodegradability is reported as “not readily biodegradable”.
In the case of `Cc1cc(Cl)ccc1N`, the ready biodegradability is reported as “not readily biodegradable”.
In the case of `CC(=O)CC(=O)Nc1ccc(C)cc1C`, the ready biodegradability is reported as “not readily biodegradable”.
In the case of `CCOCCOCCOC(C)=O`, the ready biodegradability is reported as “readily biodegradable”.
In the case of `C=CC(OC(C)=O)OC(C)=O`, the ready biodegradability is reported as “readily biodegradable”.
For `COC(=O)c1c(Cl)c(Cl)c(C(=O)OC)c(Cl)c1Cl`, the ready biodegradability was “not readily biodegradable”.
With `Brc1ccc(-c2ccc(Br)cc2)cc1` the ready biodegradability was “not readily biodegradable”.

`ClC1=C(Cl)C(Cl)(Cl)C(Cl)=C1Cl` gave a log10 Henry constant (atm·m³/mol) of -1.57.

Point of comparison: `ClC1=C(Cl)C(Cl)(Cl)C(Cl)=C1Cl`, log10 vapour pressure (mmHg) -1.22. Against it:
- CCC(C)CC(C)(C)C (stereo unspecified) — higher, 1.2
- CC1(C)C(C(=O)OC(C#N)c2cccc(Oc3ccccc3)c2)C1(C)C (stereo unspecified) — lower, -5.26
- C[C@@H]1[C@@H](c2ccc(Cl)cc2)SC(=O)N1C(=O)NC1CCCCC1 (single isomer, unassigned) — lower, -7.59
- Clc1ccc(-c2cc(Cl)c(Cl)cc2Cl)cc1Cl — lower, -5.05
- CC(=O)Br — higher, 2.08
- FC(F)OCC(F)(F)F — higher, 2.81
- CCOCCOCCOC(C)=O — higher, -1
- O=C1c2ccccc2C(=O)N1SC(Cl)(Cl)Cl — lower, -6.8
- Fc1cc(F)c(F)c(F)c1F — higher, 1.83
- COC(=O)c1c(Cl)c(Cl)c(C(=O)OC)c(Cl)c1Cl — lower, -5.6
- CCCCCCCCCCCCI — lower, -1.85
- O=CNNC=O — lower, -6.13

Point of comparison: `O=C1c2ccccc2C(=O)N1SC(Cl)(Cl)Cl`, log10 Koc (L/kg) 3.27. Against it:
- Nc1cc(Cl)c(Cl)c(Cl)c1Cl — lower, 3.03
- C[C@@H]1[C@@H](c2ccc(Cl)cc2)SC(=O)N1C(=O)NC1CCCCC1 (single isomer, unassigned) — higher, 3.79
- COC(=O)c1c(Cl)c(Cl)c(C(=O)OC)c(Cl)c1Cl — higher, 3.7

Point of comparison: `Clc1ccc(-c2cc(Cl)c(Cl)cc2Cl)cc1Cl`, log10 Koa 9.82. Against it:
- Brc1ccc(Oc2ccccc2)cc1Br — lower, 8.55

same assay, conditions: fish

Point of comparison: `Nc1cc(Cl)c(Cl)c(Cl)c1Cl`, log10 BCF 2.21. Against it:
- O=C(O)c1ccc2cc(C(=O)O)ccc2c1 — lower, 0.81
- S=C1NCCN1 — lower, 0.26
- Cc1cc(Cl)ccc1N — lower, 1.54
- Brc1ccc(-c2ccc(Br)cc2)cc1 — higher, 3.92

Point of comparison: `CC(C)(c1ccccc1)C(C)(C)c1ccccc1`, log10 biotransformation half-life (days) 0.87. Against it:
- Clc1ccc(-c2cc(Cl)c(Cl)cc2Cl)cc1Cl — higher, 2.19
- Brc1ccc(-c2ccc(Br)cc2)cc1 — higher, 1.57
